Measurements published in patent US20210145801A1, “THERAPY FOR PROTEIN MISFOLDING DISEASE” (WREN THERAPEUTICS LIMITED, priority 2018, published 2021).
Entries after “also recorded” stand apart in the source; their conditions may differ. Where two headings read alike, the source gives them in different places.

Legend:
[1] = system: Aβ1-42Neur worms (CL2355); assay: Automated motility assay in Aβ1-42Neur worms; assay type: in vivo, C. elegans; conditions: vs untreated worms
Description: Briefly, Netoglitazone stocks (5 mM in 100% DMSO) were used at an appropriate concentration to seed 9-cm NGM plates. Plates were then placed in a laminar flow hood at room temperature (22° C.) for up to 4 hours to dry. C. elegans cultures were then transferred onto media seeded with compound as L4 stage or Day 3 for late treatments and incubated at 24° for the whole experiment. Experiments were carried out at different Netoglitazone concentrations ranging from 0.05 to 500 μM in 1% DMSO. As controls, plates seeded only with 1% DMSO were used.
(§1) All C. elegans populations were cultured at 20° C. and developmentally synchronized from a 4 h egg-lay. At 64-72 h post-egg-lay (time zero), individuals were transferred to FUDR plates, and body movements were assessed over the times indicated. At different ages, the animals were washed off the plates with M9 buffer and spread over an OP-50 unseeded 9 cm plate, after which their movements were recorded at 20 fps using a recently developed microscopic procedure (M. Perni et al., Massively parallel C. elegans tracking provides multi-dimensional fingerprints for phenotypic discovery. J. Neurosci. Methods. 306, 57-67 (2018)) for 1 min. Up to 600 animals were counted in each experiment in duplicate unless stated otherwise. […]

[2] = Brain microdialysis time course study (striatum); assay type: in vivo, male C57BL/6 mice; conditions: 15 mg/kg po; for Netoglitazone (ng/ml) in microdialysate / Netoglitazone (ng/ml) corrected for recovery: striatum; for Netoglitazone (ng/ml) corrected for recovery: recovery 0.11; for concentration at 6 h: terminal sample shortly after 6 hours
Description: To further assess the free drug exposure in the CNS following dosing of Netoglitazone an in vivo surgical microdialysis time course study was performed. Microdialysis is a minimally-invasive sampling technique that is used for continuous measurement of free, unbound analyte concentrations in the extracellular fluid of virtually any tissue (e.g. ISF in the brain). The microdialysis technique requires the insertion of a small microdialysis catheter (also referred to as microdialysis probe) into the tissue of interest. The microdialysis probe is designed to mimic a blood capillary and consists of a shaft with a semipermeable hollow fiber membrane at its tip, which is connected to inlet and outlet tubing. The probe is continuously perfused with an aqueous solution (perfusate) that closely resembles the (ionic) composition of the surrounding tissue fluid at a low flow rate of approximately 0.1-5 μL/min. Once inserted into the tissue or (body)fluid of interest, small solutes can cross the semipermeable membrane by passive diffusion. The direction of the analyte flow is determined by the respective concentration gradient and allows the usage of microdialysis probes as sampling as well as delivery tools. The solution leaving the probe (dialysate) is collected at certain time intervals for analysis. It is widely recognised as the ‘gold standard’ technique for measuring free drug levels in the CNS. Briefly, 3 male C57BL/6 mice (18 weeks old) were surgically prepared with one cannula in the brain to allow for microdialysis sampling from the striatum. Animals were allowed one day to recover and then habituated to the microdialysis cages overnight. On the study day, a microdialysis probe was inserted through the implanted cannula. […] At the end of the experiment animals were anaesthetised and terminal blood and brain samples collected.

[3] = system: Aβ3-42::GFPMuscular worms (CL2331); assay: Automated motility assay in Aβ3-42::GFPMuscular worms; assay type: in vivo, C. elegans; conditions: vs untreated worms
Description: CL2331; dvIs37 [myo-3p::GFP::A-Beta (3-42)+rol-6(su1006)] (Aβ3-42::GFPMuscular worms). Maintain at 16C. Roller. Diffuse and aggregated GFP expression in body wall muscle. Low brood size. Sicker at higher temperatures. (C. D. Link et al., The β amyloid peptide can act as a modular aggregation domain. Neurobiol. Dis. 32, 420-425 (2008)); and
Briefly, Netoglitazone stocks (5 mM in 100% DMSO) were used at an appropriate concentration to seed 9-cm NGM plates. Plates were then placed in a laminar flow hood at room temperature (22° C.) for up to 4 hours to dry. […]
as §1

[4] = system: ROS production in AD worms; assay: ROS production (ROS-Glo H2O2 assay) in AD worms; assay type: in vivo, C. elegans; conditions: 5 μM administered at L4; D5 of adulthood
Description: ROS-Glo™ H2O2 cell kit assay was used (Promega, Fitchburg, Wis., USA) and adapted for C. elegans studies. The ROS-Glo™ H2O2 Assay is a bioluminescent assay that measures the level of H2O2, a reactive oxygen species (ROS), directly in cell culture or tissue or in defined enzyme reactions. A derivatized luciferin substrate is incubated with sample and reacts directly with H2O2 to generate a luciferin precursor. Worms treated with 5 μM Netoglitazone in 1% DMSO or 1% DMSO only were washed using M9 buffer out the NGM plates. The buffer was then changed 3 times to remove the excess bacteria. Worm pellets were then divided in three wells and 80 μl of worm pellet (around 200 worms/well) was incubated for 6 h at RT with 20 μl of a ROS Substrate Solution (Promega, Fitchburg, Wis., USA); mild shaking at 300 rpm was used to avoid worm sedimentation; afterwards, worms were incubated for ca. 20 min with 100 μl of the detection solution; luminescence was then measured with a Clariostar (BMG Labtech, Aylesbury, UK).

O=C1NC(=O)C(Cc2ccc3cc(OCc4ccccc4F)ccc3c2)S1 (centres unmarked) [Netoglitazone]
Motility of Aβ1-42Neur worms [1]: significantly improves the (A) chemotaxis index and (B) motility
Crossing of the blood-brain barrier after oral administration [2]: readily crosses the blood-brain barrier
First microdialysate fraction in which compound could be detected ([2]; post administration): 30 to 60 min
Netoglitazone (ng/ml) in microdialysate ([2]; 0-30 min after dose): <LLOQ
Netoglitazone (ng/ml) in microdialysate ([2]; 30-60 min after dose): 0.4 ng/mL
Netoglitazone (ng/ml) in microdialysate ([2]; 60-90 min after dose): 0.5 ng/mL
Netoglitazone (ng/ml) in microdialysate ([2]; 90-120 min after dose): 0.7 ng/mL
Netoglitazone (ng/ml) in microdialysate ([2]; 120-150 min after dose): 0.9 ng/mL
Netoglitazone (ng/ml) in microdialysate ([2]; 150-180 min after dose): 1.1 ng/mL
Netoglitazone (ng/ml) in microdialysate ([2]; 180-210 min after dose): 1.3 ng/mL
Netoglitazone (ng/ml) in microdialysate ([2]; 210-240 min after dose): 1.5 ng/mL
Netoglitazone (ng/ml) in microdialysate ([2]; 240-270 min after dose): 1.9 ng/mL
Netoglitazone (ng/ml) in microdialysate ([2]; 270-300 min after dose): 2.8 ng/mL
Netoglitazone (ng/ml) in microdialysate ([2]; 300-330 min after dose): 3.3 ng/mL
Netoglitazone (ng/ml) in microdialysate ([2]; 330-360 min after dose): 3.6 ng/mL
Netoglitazone (ng/ml) corrected for recovery ([2]; 0-30 min after dose): <LLOQ
Netoglitazone (ng/ml) corrected for recovery ([2]; 30-60 min after dose): 3.6 ng/mL
Netoglitazone (ng/ml) corrected for recovery ([2]; 60-90 min after dose): 4.5 ng/mL
Netoglitazone (ng/ml) corrected for recovery ([2]; 90-120 min after dose): 6.4 ng/mL
Netoglitazone (ng/ml) corrected for recovery ([2]; 120-150 min after dose): 8.2 ng/mL
Netoglitazone (ng/ml) corrected for recovery ([2]; 150-180 min after dose): 10.0 ng/mL
Netoglitazone (ng/ml) corrected for recovery ([2]; 180-210 min after dose): 11.8 ng/mL
Netoglitazone (ng/ml) corrected for recovery ([2]; 210-240 min after dose): 13.6 ng/mL
Netoglitazone (ng/ml) corrected for recovery ([2]; 240-270 min after dose): 17.3 ng/mL
Netoglitazone (ng/ml) corrected for recovery ([2]; 270-300 min after dose): 25.5 ng/mL
Netoglitazone (ng/ml) corrected for recovery ([2]; 300-330 min after dose): 30.0 ng/mL
Netoglitazone (ng/ml) corrected for recovery ([2]; 330-360 min after dose): 32.7 ng/mL
Kp at 6 h ([2]; male, C57BL/6, mouse, brain / plasma, terminal samples shortly after 6 hours, read-out: Brain:plasma ratio): 0.8
concentration at 6 h ([2]; male, C57BL/6, mouse, plasma, read-out: Concentration in plasma): 13300 ng/mL
concentration at 6 h ([2]; male, C57BL/6, mouse, whole brain, read-out: Concentration in brain): 10300 ng/g
Motility of Aβ3-42::GFPMuscular worms [3]: significantly improves the motility of Aβ3-42::GFPMuscular worms
ROS production / levels of oxidative species in AD worms [4]: significantly decreased the levels of oxidative species; also recorded: restores the ROS production in AD worms to normal levels
